Test results: ChEMBL document CHEMBL1201862, “PubChem BioAssay data set” (2004)
Activity calls are given as the source filed them.

Experiments:
[1] = target: FAD-linked sulfhydryl oxidase ALR (Homo sapiens, UniProt P55789); assay: inhibitors of human ALR sulfhydryl oxidase, dose response, biochemical, H2O2 detection, luminescence, cherry-pick (AID 493248)
[2] = target: T1, Heat shock factor protein 1 (Mus musculus, UniProt P38532); assay: HSF1 potentiators in luciferase reporter cells, confirmation, cell-based, NIH3T3, luminescence, dose retest (AID 435004); type: functional;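 note: stress induced by proteasome inhibitor MG132 added 30 min after compound; luciferase reporter driven by HSF1 response element in NIH3T3 cells; actives raise luminescence as potentiators of the MG132 stress response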
T1 sequence (P38532 whole entry): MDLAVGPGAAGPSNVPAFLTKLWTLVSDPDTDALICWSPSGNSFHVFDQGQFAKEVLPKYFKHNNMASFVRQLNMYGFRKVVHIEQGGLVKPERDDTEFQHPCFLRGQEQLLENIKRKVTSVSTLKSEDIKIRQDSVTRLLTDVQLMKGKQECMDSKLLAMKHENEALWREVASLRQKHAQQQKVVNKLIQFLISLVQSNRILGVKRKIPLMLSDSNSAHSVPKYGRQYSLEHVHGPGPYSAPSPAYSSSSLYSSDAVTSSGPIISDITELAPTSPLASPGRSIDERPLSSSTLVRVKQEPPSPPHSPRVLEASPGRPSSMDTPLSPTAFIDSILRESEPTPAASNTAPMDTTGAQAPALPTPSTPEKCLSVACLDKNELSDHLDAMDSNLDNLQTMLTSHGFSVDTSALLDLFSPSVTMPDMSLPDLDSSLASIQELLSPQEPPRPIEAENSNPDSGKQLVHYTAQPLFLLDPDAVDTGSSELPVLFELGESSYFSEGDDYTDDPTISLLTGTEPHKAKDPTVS

[3] = NIH-3T3 fibroblast cytotoxicity, dose response, cytotoxicity control, cell-based, fluorescence, Alamar Blue, secondary assay (AID 2327); type: functional;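 note: NIH-3T3 mouse fibroblasts cultured with fluconazole at 8 µg/mL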
[4] = C. albicans growth with fluconazole, confirmation, fluorescence, retest (AID 2467); type: functional, cell-based
[5] = target: Large T antigen (Simian virus 40, UniProt P03070); type: functional, Betapolyomavirus macacae;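 note: Confirmatory-stage PubChem screen for compounds that inhibit SV40 T antigen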
Large T antigen, sequence (P03070 whole entry): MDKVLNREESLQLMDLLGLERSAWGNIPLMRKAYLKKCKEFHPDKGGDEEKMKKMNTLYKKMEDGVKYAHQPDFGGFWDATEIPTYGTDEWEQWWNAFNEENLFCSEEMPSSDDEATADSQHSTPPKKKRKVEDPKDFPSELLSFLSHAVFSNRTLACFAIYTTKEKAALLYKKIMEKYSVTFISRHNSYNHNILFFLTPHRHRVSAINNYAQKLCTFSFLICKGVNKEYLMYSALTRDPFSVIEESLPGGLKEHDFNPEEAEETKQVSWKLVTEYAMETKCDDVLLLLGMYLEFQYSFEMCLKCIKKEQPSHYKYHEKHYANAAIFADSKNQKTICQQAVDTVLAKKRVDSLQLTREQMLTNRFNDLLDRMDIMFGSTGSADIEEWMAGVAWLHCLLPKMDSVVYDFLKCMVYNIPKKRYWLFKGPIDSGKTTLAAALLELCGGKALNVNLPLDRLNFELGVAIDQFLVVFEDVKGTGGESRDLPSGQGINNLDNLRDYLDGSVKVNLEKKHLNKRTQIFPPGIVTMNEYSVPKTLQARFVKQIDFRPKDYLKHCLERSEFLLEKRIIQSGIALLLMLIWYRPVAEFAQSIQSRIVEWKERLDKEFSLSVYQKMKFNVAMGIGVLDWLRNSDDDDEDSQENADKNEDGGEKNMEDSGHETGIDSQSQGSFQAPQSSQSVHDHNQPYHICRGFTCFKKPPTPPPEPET

[6] = target: T2, Calpain-2 catalytic subunit (Sus scrofa, UniProt P43367); assay: pig calpain II inhibitor potency, dose response, biochemical, fluorogenic peptide substrate (AID 1420); type: functional
T2 sequence (P43367 whole entry): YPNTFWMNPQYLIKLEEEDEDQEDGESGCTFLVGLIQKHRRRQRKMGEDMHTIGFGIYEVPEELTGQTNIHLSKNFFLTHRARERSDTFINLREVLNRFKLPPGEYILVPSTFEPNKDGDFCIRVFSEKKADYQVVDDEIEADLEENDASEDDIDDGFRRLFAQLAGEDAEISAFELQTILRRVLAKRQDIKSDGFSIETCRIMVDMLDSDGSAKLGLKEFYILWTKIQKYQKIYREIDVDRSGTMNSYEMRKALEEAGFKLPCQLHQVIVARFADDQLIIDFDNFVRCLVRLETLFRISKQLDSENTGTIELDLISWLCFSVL

[7] = cytotoxicity toward NIH3T3 fibroblasts, dose response, counter-screen, cell-based, ATP luminescence, mouse fibroblasts (AID 2010); type: functional;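 note: cells exposed to compound for about 90 hours before reading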
[8] = inhibitors of intracellular T. cruzi replication, confirmation, NIH3T3 host cells, beta-gal luminescence (AID 2044); type: functional, cell-based;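 note: intracellular parasites grown in NIH/3T3 mouse fibroblasts as host cells; luminescent beta-galactosidase reporter signal from transgenic T. cruzi replicating inside host cells; inhibitors lower the luminescence signal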
[9] = target: T3, Carboxy-terminal domain RNA polymerase II polypeptide A small phosphatase 1 (Homo sapiens, UniProt Q9GZU7); assay: inhibitors of CTDSP1, concentration-response testing, biochemical assay, absorbance-based, actives from ultra-high-throughput screening (AID 540297); type: functional
T3 sequence (Q9GZU7 whole entry): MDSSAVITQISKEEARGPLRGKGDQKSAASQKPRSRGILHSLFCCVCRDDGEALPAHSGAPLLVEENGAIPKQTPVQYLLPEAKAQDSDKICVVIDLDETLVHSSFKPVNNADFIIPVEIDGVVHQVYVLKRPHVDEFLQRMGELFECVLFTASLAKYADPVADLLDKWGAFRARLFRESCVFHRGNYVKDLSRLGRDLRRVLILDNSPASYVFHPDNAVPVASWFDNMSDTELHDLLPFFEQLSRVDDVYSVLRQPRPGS

[10] = target: T4, Microphthalmia-associated transcription factor (Homo sapiens, UniProt O75030); assay: TRPM1 promoter luciferase signal decrease, dose response, MITF inhibitor project, cell-based, SK-MEL-5, cherry-picked, set 3 (AID 493073); type: functional
T4 sequence (O75030 whole entry): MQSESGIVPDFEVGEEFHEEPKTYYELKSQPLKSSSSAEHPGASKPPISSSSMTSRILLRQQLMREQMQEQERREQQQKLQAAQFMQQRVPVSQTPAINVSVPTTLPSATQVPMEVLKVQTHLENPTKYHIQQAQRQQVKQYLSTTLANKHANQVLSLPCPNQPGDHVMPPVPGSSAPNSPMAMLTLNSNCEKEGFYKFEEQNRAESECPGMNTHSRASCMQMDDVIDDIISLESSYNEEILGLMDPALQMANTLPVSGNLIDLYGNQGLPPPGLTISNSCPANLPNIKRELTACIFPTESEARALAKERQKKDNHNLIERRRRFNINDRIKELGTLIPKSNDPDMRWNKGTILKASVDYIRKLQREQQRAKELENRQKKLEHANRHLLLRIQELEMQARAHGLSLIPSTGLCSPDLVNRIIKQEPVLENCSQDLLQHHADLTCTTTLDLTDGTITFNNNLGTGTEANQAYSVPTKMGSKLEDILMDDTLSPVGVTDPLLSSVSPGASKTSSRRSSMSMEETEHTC

[11] = target: Paired box protein Pax-8 (Homo sapiens, UniProt Q06710); assay: inhibitors of PAX8-driven TPO luciferase reporter, dose response, RMG-I cells, cherry-pick (AID 687027); type: functional, cell-based;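 note: luciferase reporter driven by Pax8 target thyroperoxidase promoter measured by SteadyGlo luminescence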
Paired box protein Pax-8, sequence (Q06710 whole entry): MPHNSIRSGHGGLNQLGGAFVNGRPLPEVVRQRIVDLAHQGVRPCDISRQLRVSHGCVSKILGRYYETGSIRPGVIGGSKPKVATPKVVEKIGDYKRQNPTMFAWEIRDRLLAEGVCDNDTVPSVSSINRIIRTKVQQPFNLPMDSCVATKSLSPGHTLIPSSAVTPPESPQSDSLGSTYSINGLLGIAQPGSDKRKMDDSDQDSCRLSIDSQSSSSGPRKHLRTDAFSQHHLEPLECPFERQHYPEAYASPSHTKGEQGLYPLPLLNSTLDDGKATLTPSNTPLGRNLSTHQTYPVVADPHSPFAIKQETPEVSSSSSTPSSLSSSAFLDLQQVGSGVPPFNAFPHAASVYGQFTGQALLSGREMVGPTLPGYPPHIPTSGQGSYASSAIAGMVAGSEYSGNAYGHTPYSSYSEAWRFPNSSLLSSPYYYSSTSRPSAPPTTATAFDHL

[12] = target: T1, Heat shock factor protein 1; assay: inhibition of MG132-induced HSE-luciferase signal, confirmation, cell-based, NIH3T3, luminescence, dose retest (AID 2382); type: functional;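 note: NIH3T3 fibroblasts with HSF1-driven luciferase reporter stressed by proteasome inhibitor MG132; luminescence from HSF1-driven luciferase expression after 8 hours of MG132 stress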
[13] = test system: H4; assay: Luminescence Cell-Based Dose Response HTS to Identify Activators of 5'UTR Stem-Loop Driven Prion Protein mRNA Translation in H4 Neuroglioblastoma Cells. [Related pubchem assays: 1829 (Project Summary), 1814 (Primary HTS)]; type: functional; settings: Homo sapiens
[14] = Luminescence Cell-Based Dose Confirmation HTS to Identify Activators of 5'UTR Stem-Loop Driven Alpha-Synuclein mRNA Translation in H4 Neuroglioblastoma Cells. [Related pubchem assays: 1829 (Project Summary), 1814 (Primary HTS)]; type: functional
[15] = Luminescence Cell-Based Dose Response HTS to Identify Activators of Luciferase Translation or Activity in H4 […] Cells. [Related pubchem assays: 1829 (Project Summary), 1814 (Primary HTS)]; type: functional
[16] = target: T5, Rac GTPase-activating protein 1 (Homo sapiens, UniProt Q9H0H5); assay: MgcRacGAP GTPase-activating activity inhibitors, confirmation, biochemical, ADP Hunter fluorescence, primary and confirmatory (AID 624330); type: functional
T5 sequence (Q9H0H5 whole entry): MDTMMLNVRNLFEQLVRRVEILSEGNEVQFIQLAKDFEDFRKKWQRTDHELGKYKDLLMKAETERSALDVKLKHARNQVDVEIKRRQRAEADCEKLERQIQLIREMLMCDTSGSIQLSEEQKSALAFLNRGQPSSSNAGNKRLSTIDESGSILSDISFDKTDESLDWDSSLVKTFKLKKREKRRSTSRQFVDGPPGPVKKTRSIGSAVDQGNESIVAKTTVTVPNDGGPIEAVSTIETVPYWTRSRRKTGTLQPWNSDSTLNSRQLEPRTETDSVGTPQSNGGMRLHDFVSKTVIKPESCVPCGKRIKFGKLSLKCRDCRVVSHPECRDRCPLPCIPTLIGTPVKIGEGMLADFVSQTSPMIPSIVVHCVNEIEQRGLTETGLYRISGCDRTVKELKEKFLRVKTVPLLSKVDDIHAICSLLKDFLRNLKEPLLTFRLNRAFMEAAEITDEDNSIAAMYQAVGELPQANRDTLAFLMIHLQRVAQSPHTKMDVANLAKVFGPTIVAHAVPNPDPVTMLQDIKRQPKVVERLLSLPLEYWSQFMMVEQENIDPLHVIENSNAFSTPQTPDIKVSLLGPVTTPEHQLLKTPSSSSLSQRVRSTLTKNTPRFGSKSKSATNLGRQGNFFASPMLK

[17] = test system: INS1; assay: beta cell apoptosis inhibitors, cytokine rescue, dose response, luminescence, retest (AID 449756); type: functional, cell-based; settings: Rattus norvegicus;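 note: cell death triggered by IL-1 beta plus TNF-alpha plus IFN-gamma mixture; protective hits raise ATP signal compared with cytokine alone wells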

FAD-linked sulfhydryl oxidase ALR, sequence (P55789 whole entry): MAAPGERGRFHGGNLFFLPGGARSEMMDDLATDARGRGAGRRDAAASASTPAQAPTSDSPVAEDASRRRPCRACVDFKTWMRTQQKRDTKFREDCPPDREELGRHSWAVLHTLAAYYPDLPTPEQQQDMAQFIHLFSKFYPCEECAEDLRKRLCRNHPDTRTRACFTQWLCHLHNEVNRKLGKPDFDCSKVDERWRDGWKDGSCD

CSCc1ccc(C(=O)NC(C)c2ccc(-n3ccnc3)cc2)cc1 (configuration not stated)
AC50 [1]: 1.33 µM (active)

COc1ccc(CCNC(=O)Nc2cccc([N+](=O)[O-])c2)cc1OC
EC50 [2]: > 260 µM (inactive)

CCN(CC)C(=O)/C(=C/c1ccc2c(c1)OCO2)NC(=O)c1ccc(Br)cc1
EC50 [3]: > 150 µM (inactive) | EC50 [4]: 3.58 µM (active)

CCc1cc2c(Nc3ccc(O)cc3)nc(C)nc2s1
IC50 [5]: 23.7 µM (active)

O=C(CC1C(=O)NCCN1Cc1ccc(F)cc1)NCCN1CCCc2ccccc21 (configuration not stated)
AC50 [1]: 3.16 µM (active)

COc1ccc([N+](=O)[O-])cc1NC(=O)CSc1ccc2ccccc2c1
IC50 [6]: 2.92 µM (not active)

CN(C)c1ccc(/C=C/c2cc[n+](C)cc2)cc1
EC50 [7]: > 60 µM (not active) | EC50 [8]: 0.723 µM (active) | AC50 [1]: 0.416 µM (active)

CCCCNC(=O)COC(=O)c1c2c(nc3ccccc13)CCC2
IC50 [9]: 9.63 µM (active)

CCOc1c(Br)cc(CNc2ccc(N3CCN(C(C)=O)CC3)cc2)cc1OC
IC50 [5]: 6.23 µM (active)

COc1c(Cl)cc(C(=O)Nc2ccccc2-c2ccccc2)cc1Cl
IC50 [6]: > 50 µM (not active)

CNC(=O)COC(=O)CNC(=O)c1cc(Cl)cc([N+](=O)[O-])c1
IC50 [6]: > 50 µM (not active)

CC(C)OC(=O)c1c(NC(=O)Cn2cnc([N+](=O)[O-])n2)sc2c1CCCC2
EC50 [7]: > 60 µM (not active) | EC50 [8]: 0.203 µM (active) | EC50 [2]: > 260 µM (inactive)

C=C1CCC[C@]2(C)C[C@H]3OC(=O)C(CN4CCCCC4CO)[C@H]3CC12 (some centres not stated)
AC50 [10]: 11 µM (active)

CCN(CC)c1ccc(NC(=O)CSc2nc3nc(C)cc(C)c3c(=O)[nH]2)cc1
IC50 [5]: 10.2 µM (active)

Cc1cccc2sc(N(CCCN(C)C)C(=O)c3nc4ccccc4s3)nc12
AC50 [10]: 10.9 µM (active)

CC1=C(C(=O)c2ccccc2)C(c2ccc(O)cc2)NC(S)=N1 (configuration not stated)
IC50 [5]: > 100 µM (active)

Cc1ccc(O)c(NC(=O)CSc2n[nH]c(-c3ccccc3)n2)c1
EC50 [2]: 10 µM (active)

CCCCCCCCC(=O)NNC(=O)c1c(O)c2ccccc2n(CC)c1=O
EC50 [3]: > 150 µM (inactive) | EC50 [4]: 2.96 µM (active)

Cc1cccc(Nc2ncccc2C(=O)NCc2cccs2)c1C
IC50 [6]: 14.4 µM (not active)

CSc1sc(C(=O)Nc2ccc(F)cc2F)c2c1C=CCC2
EC50 [2]: > 260 µM (inactive)

O=C(C1CCC(=O)N(C2CC2)C1)N1CCN(c2ccc(Cl)cc2)CC1 (configuration not stated)
AC50 [1]: 15.8 µM (active)

CC(NC(=O)C(=O)N1CCCCC1)C(c1cccs1)N1CCN(c2ccccc2)CC1 (configuration not stated)
AC50 [1]: 1.16 µM (active)

CCc1cc2c(=O)n(Cc3ccccc3)c(SC3CCOC3=O)nc2s1 (configuration not stated)
IC50 [6]: 12.6 µM (not active)

Cc1ccc(-n2cc(CNCCN3CCOC3=O)c(-c3cccc(C)c3)n2)cc1
EC50 [2]: > 260 µM (inactive)

CCC(=O)N1CCN(c2ccc(NC(=O)c3ccc([N+](=O)[O-])o3)cc2)CC1
AC50 [11]: 5.31 µM (active) | EC50 [7]: 7.54 µM (active) | EC50 [12]: > 195 µM (not active) | EC50 [8]: 5.98 µM (active) | AC50 [10]: 8.68 µM (active)

c1cnc2c(OCc3nc4ccccc4[nH]3)cccc2c1
EC50 [13]: 5.66 µM (active) | EC50 [14]: 0.396 µM (active) | IC50 [6]: 7.55 µM (not active) | EC50 [15]: 7.06 µM (active)

CC1CN(C(=S)NC(=O)C2CCCCC2)CC(C)O1 (configuration not stated)
EC50 [2]: > 260 µM (inactive)

O=C(Nc1ccnc(O)n1)c1sc2ccccc2c1Cl
IC50 [9]: 16.2 µM (active)

Cc1ccc(C(=O)N(Cc2ccccc2)C(C)(C)C)cc1C
IC50 [6]: 16.6 µM (not active)

Cc1c(C=O)c2ccccc2n1CC(=O)NC(C)c1ccccc1 (configuration not stated)
IC50 [6]: > 50 µM (not active)

COc1ccc(Nc2ccc(Cl)cc2)c(C(=O)O)c1
IC50 [5]: 18 µM (active)

Cc1ccc(-c2nc3ccc(Cl)cc3c(=O)n2O)cc1
EC50 [3]: > 160 µM (inactive) | EC50 [4]: 1.58 µM (active)

CN(C)c1ccc(NC2=C([N+](=O)[O-])CS(=O)(=O)C2)cc1
IC50 [16]: 42.7 µM (active) | IC50 [5]: 5.71 µM (active)

CCCCN(CC)CCCN=C(S)Nc1ccc2nc3n(c(=O)c2c1)CCCCC3
EC50 [7]: > 60 µM (not active) | EC50 [8]: 1.29 µM (active) | IC50 [6]: < 0.4 µM (not active)

O=c1c2ccccc2nc(SCc2nnc(-c3ccccc3Br)o2)n1Cc1ccco1
EC50 [2]: > 260 µM (inactive)

O=C1CSC(c2cccc(F)c2)N1c1ccccc1 (configuration not stated)
AC50 [1]: 1.22 µM (active)

O=C(N/N=C/C=C(\O)c1ccc([N+](=O)[O-])cc1)c1ccccc1
EC50 [7]: 17.6 µM (active) | AC50 [17]: 1.76 µM (active) | EC50 [8]: 2.02 µM (active) | AC50 [10]: 9.19 µM (active)
